# Laboratory results published in patent publication US12428406B2 (PMV Pharmaceuticals, Inc., priority 2019, dated 2025).
# Molecular target: T1, p53 Y220C (Homo sapiens, UniProt P04637, Y220C)
# T1 construct: The recombinant protein was a truncation mutant containing only amino acids 94-312 of p53; made in house; host or cells: E. coli
# Experiment: In vitro DNA binding activity assay (HTRF / TR-FRET): stabilization of p53 Y220C and increase of its DNA binding activity
# Type: biochemical
# Details: recombinant His-tagged p53 Y220C DNA binding domain (aa 94-312), biotin-labeled consensus DNA, incubated at 27° C. or 29° C. for 60 min
# In short: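 His-tagged p53 Y220C, E. coli-expressed, binding biotin-labeled consensus DNA measured by HTRF (anti-His-APC, streptavidin-europium). Compounds from 4.5 mM DMSO stocks, 3-fold serial dilutions; incubations at room temperature 15 min, then 20 min. SC150 = concentration raising DNA binding by 50%.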
# T1 sequence (P04637 94-312, change not shown): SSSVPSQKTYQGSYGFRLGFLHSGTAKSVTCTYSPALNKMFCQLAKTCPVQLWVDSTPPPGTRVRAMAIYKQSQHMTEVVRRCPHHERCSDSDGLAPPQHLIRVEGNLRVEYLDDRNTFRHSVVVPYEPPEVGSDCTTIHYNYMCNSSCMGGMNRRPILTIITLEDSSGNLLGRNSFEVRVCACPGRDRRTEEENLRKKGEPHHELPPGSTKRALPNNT
row,SC150 (concentration of the compound required to increase the DNA binding activity by 50%),Structure (SMILES)
1,+ (+ = 0 μM ≤ SC150 < 0.05 μM),"COc1cc(S(C)(=O)=O)ccc1NCC#Cc1cc2c(N[C@@H]3CCN(C(=O)CN(C)C)C[C@@H]3F)cccc2n1CC(F)(F)F [Compound 855A, 2-(dimethylamino)-1-[(3S,4R)-3-fluoro-4-[(2-{3-[(4-methanesulfonyl-2-methoxyphenyl)amino]prop-1-yn-1-yl}-1-(2,2,2-trifluoroethyl)-1H-indol-4-yl)amino]piperidin-1-yl]ethan-1-one]"
2,+ (+ = 0 μM ≤ SC150 < 0.05 μM),"COc1cc(S(C)(=O)=O)ccc1NCC#Cc1cc2c(NC3CCN(CC(O)COC(=O)C(C)C)CC3)cccc2n1CC(F)(F)F (centres unmarked) [Compound 592A, 2-hydroxy-3-{4-[(2-{3-[(4-methanesulfonyl-2-methoxyphenyl)amino]prop-1-yn-1-yl}-1-(2,2,2-trifluoroethyl)-1H-indol-4-yl)amino]piperidin-1-yl}propyl 2-methylpropanoate]"
3,+ (+ = 0 μM ≤ SC150 < 0.05 μM),CCOC(=O)c1ccc(NCC#Cc2cc3c(N[C@H]4CCN(CC)C[C@H]4F)cccc3n2CC(F)(F)F)c(OC)c1 [Compound 824A]
4,+ (+ = 0 μM ≤ SC150 < 0.05 μM),"COc1cc(S(=O)(=O)NC(C)=O)ccc1NCC#Cc1cc2c(N[C@@H]3CCN(C)C[C@@H]3F)cccc2n1CC(F)(F)F [Compound 837A, N-(4-{[3-(4-{[(3S,4R)-3-fluoro-1-methylpiperidin-4-yl]amino}-1-(2,2,2-trifluoroethyl)-1H-indol-2-yl)prop-2-yn-1-yl]amino}-3-methoxybenzenesulfonyl)acetamide]"
5,+ (+ = 0 μM ≤ SC150 < 0.05 μM),COc1cc(S(N)(=O)=O)ccc1NCC#Cc1cc2c(NC3CCN(CCOC(C)=O)CC3)cccc2n1CC(F)(F)F [Compound 618A]
6,+ (+ = 0 μM ≤ SC150 < 0.05 μM),COc1cc(S(N)(=O)=O)ccc1NCC#Cc1cc2c(NC3CCN(C(=O)C(C)C)CC3)cccc2n1CC(F)(F)F [Compound 753A]
7,+ (+ = 0 μM ≤ SC150 < 0.05 μM),"COc1cc(S(C)(=O)=O)ccc1NCC#Cc1cc2c(N[C@@H]3CCN(CC(C)O)C[C@@H]3F)cccc2n1CC(F)(F)F (mixture of isomers) [Compound 871A, 1-[(3S,4R)-3-fluoro-4-[(2-{3-[(4-methanesulfonyl-2-methoxyphenyl)amino]prop-1-yn-1-yl}-1-(2,2,2-trifluoroethyl)-1H-indol-4-yl)amino]piperidin-1-yl]propan-2-ol]"
8,+ (+ = 0 μM ≤ SC150 < 0.05 μM),COc1cc(C(=O)N2CCC(O)CC2)ccc1NCC#Cc1cc2c(NC3CCN(C)CC3)cccc2n1CC(F)(F)F [Compound 492A]
9,+ (+ = 0 μM ≤ SC150 < 0.05 μM),"COc1cc(S(C)(=O)=O)ccc1NCC#Cc1cc2c(NC3CCN(CC(C)OC(C)=O)CC3)cccc2n1CC(F)(F)F (centres unmarked) [Compound 567A, 1-{4-[(2-{3-[(4-methanesulfonyl-2-methoxyphenyl)amino]prop-1-yn-1-yl}-1-(2,2,2-trifluoroethyl)-1H-indol-4-yl)amino]piperidin-1-yl}propan-2-yl acetate]"
10,++ (++ = 0.05 μM ≤ SC150 < 0.1 μM),"COCCNc1cccc2c1cc(C#CCNc1ccc(S(N)(=O)=O)cc1OC)n2CC(F)(F)F [Compound 2A, 3-methoxy-4-[(3-{4-[(2-methoxyethyl)amino]-1-(2,2,2-trifluoroethyl)-1H-indol-2-yl}prop-2-yn-1-yl)amino]benzene-1-sulfonamide]"
11,+ (+ = 0 μM ≤ SC150 < 0.05 μM),"CNS(=O)(=O)c1ccc(NCC#Cc2cc3c(N[C@H]4CC[C@@H](N(C)C)CC4)cccc3n2CC(F)(F)F)c(OC)c1 [Compound 72A, 3-methoxy-N-methyl-4-{[3-(4-{[(1S,4S)-4-(dimethylamino)cyclohexyl]amino}-1-(2,2,2-trifluoroethyl)-1H-indol-2-yl)prop-2-yn-1-yl]amino}benzene-1-sulfonamide]"
12,++ (++ = 0.05 μM ≤ SC150 < 0.1 μM),"CNc1cc(S(C)(=O)=O)ccc1OCC#Cc1cc2c(N[C@H]3CC[C@@H](N(C)C)CC3)cccc2n1CC(F)(F)F [Compound 108A, (1S,4S)-N^4-(2-{3-[4-methanesulfonyl-2-(methylamino)phenoxy]prop-1-yn-1-yl}-1-(2,2,2-trifluoroethyl)-1H-indol-4-yl)-N^1,N^1-dimethylcyclohexane-1,4-diamine]"
13,+ (+ = 0 μM ≤ SC150 < 0.05 μM),"CS(=O)(=O)c1ccc(NCC#Cc2cc3c(N[C@H]4CC[C@H](N5CC6(COC6)C5)CC4)cccc3n2CC(F)(F)F)c(OCC#N)c1 [Compound 222A, 2-(5-methanesulfonyl-2-{[3-(4-{[(1R,4R)-4-{2-oxa-6-azaspiro[3.3]heptan-6-yl}cyclo-hexyl]amino}-1-(2,2,2-trifluoroethyl)-1H-indol-2-yl)prop-2-yn-1-yl]amino}phenoxy) acetonitrile]"
14,+ (+ = 0 μM ≤ SC150 < 0.05 μM),"CS(=O)(=O)c1ccc(NCC#Cc2cc3c(NC4CCC(N5CC6(COC6)C5)CC4)cccc3n2CC(F)(F)F)c(OCF)c1 [Compound 257A, 2-(3-{[2-(fluoro-methoxy)-4-methane-sulfonylphenyl]amino}prop-1-yn-1-yl)-N-[(1R,4R)-4-{2-oxa-6-azaspiro[3.3]heptan-6-yl}cyclo-hexyl]-1-(2,2,2-trifluoroethyl)-1H-indol-4-amine]"
15,+ (+ = 0 μM ≤ SC150 < 0.05 μM),"COc1cc(S(C)(=O)=O)ccc1NCC#Cc1cc2c(N[C@H]3CCN(C(C)=O)[C@@H](C)C3)cccc2n1CC(F)(F)F (stereo in doubt) [Compound 739A, 1-{4-[(2-{3-[(4-methanesulfonyl-2-methoxyphenyl)amino]prop-1-yn-1-yl}-1-(2,2,2-trifluoroethyl)-1H-indol-4-yl)amino]-2-methylpiperidin-1-yl}ethan-1-one]"
16,+ (+ = 0 μM ≤ SC150 < 0.05 μM),"COc1cc(S(C)(=O)=O)ccc1NCC#Cc1cc2c(NC3CCN(C[C@H]4COC(=O)O4)CC3)cccc2n1CC(F)(F)F [Compound 578A, (4S)-4-({4-[(2-{3-[(4-methanesulfonyl-2-methoxyphenyl)amino]prop-1-yn-1-yl}-1-(2,2,2-trifluoroethyl)-1H-indol-4-yl)amino]pipendin-1-yl}methyl)-1,3-dioxolan-2-one]"

row,Structure (SMILES),SC150 (concentration of the compound required to increase the DNA binding activity by 50%)
1,"CNC(=O)c1ccc(NCC#Cc2cc3c(N[C@H]4CC[C@@H](N5CC6CC(C5)O6)CC4)cccc3n2CC(F)(F)F)c(OC)c1 [Compound 403A, 3-methoxy-N-methyl-4-{[3-(4-{[(1S,4S)-4-{6-oxa-3-azabicyclo[3.1.1]heptan-3-yl}cyclohexyl]amino}-1-(2,2,2-trifluoroethyl)-1H-indol-2-yl)prop-2-yn-1-yl]amino}benzamide]",++ (++ = 0.05 μM ≤ SC150 < 0.1 μM)
